According to patent publication US20250215029A1 (Recludix Pharma, Inc., priority 2022, published 2025):
pIC50: −log10 of the molar value. Like-named read-outs stand apart in the source and are kept apart here.

Tests used:
[1] = biological target: T1, pY641-STAT6 in PBMC (Homo sapiens, UniProt P42226); test: MSD-pSTAT-PBMC Assay (pSTAT6, IL-4 stimulated); assay type: cell-based; settings: compound 3 hrs, then 1 ng/mL IL-4 for 10 min
T1 construct: Cryopreserved Peripheral Blood Mononuclear Cells (PBMC) are from AllCells; host or cells: cryopreserved PBMC
T1 sequence (P42226 1-847): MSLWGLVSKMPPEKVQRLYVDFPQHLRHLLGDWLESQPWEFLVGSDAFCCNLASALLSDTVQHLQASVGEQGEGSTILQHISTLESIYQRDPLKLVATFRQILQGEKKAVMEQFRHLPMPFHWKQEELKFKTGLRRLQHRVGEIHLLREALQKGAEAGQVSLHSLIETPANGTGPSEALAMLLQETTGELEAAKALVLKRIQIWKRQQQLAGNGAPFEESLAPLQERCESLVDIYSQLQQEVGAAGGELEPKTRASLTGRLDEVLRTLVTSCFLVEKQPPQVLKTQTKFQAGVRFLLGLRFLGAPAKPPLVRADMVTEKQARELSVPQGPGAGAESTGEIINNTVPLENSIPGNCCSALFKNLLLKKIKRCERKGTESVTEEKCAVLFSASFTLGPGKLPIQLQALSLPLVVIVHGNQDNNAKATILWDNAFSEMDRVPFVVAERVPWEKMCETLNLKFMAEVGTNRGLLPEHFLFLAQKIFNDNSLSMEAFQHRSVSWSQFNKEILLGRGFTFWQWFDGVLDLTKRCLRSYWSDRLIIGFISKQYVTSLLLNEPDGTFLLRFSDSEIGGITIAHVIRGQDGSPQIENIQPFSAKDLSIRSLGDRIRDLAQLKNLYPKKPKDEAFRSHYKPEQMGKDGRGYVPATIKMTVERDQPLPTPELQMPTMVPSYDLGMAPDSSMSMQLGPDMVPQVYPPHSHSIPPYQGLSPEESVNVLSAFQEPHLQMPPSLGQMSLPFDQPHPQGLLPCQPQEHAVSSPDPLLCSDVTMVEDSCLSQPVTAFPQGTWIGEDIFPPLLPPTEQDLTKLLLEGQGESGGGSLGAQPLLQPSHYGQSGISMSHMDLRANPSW
Procedure, shortened: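 PBMC (human, cryopreserved, overnight recovery) + cpd 3 hrs → IL-6 10 ng/mL (STAT3) or IL-4 1 ng/mL (STAT6) ×10 min → lysis with protease/phosphatase inhibitors → MSD capture/phospho detection. IC50, variable slope, DMSO-normalized.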

[2] = biological target: T2, pY705-STAT3 in PBMC (Homo sapiens, UniProt P40763); test: MSD-pSTAT-PBMC Assay (pSTAT3, IL-6 stimulated); assay type: cell-based; settings: compound 3 hrs, then 10 ng/mL IL-6 for 10 min
T2 construct: Cryopreserved Peripheral Blood Mononuclear Cells (PBMC) are from AllCells; host or cells: cryopreserved PBMC
T2 sequence (P40763 whole entry): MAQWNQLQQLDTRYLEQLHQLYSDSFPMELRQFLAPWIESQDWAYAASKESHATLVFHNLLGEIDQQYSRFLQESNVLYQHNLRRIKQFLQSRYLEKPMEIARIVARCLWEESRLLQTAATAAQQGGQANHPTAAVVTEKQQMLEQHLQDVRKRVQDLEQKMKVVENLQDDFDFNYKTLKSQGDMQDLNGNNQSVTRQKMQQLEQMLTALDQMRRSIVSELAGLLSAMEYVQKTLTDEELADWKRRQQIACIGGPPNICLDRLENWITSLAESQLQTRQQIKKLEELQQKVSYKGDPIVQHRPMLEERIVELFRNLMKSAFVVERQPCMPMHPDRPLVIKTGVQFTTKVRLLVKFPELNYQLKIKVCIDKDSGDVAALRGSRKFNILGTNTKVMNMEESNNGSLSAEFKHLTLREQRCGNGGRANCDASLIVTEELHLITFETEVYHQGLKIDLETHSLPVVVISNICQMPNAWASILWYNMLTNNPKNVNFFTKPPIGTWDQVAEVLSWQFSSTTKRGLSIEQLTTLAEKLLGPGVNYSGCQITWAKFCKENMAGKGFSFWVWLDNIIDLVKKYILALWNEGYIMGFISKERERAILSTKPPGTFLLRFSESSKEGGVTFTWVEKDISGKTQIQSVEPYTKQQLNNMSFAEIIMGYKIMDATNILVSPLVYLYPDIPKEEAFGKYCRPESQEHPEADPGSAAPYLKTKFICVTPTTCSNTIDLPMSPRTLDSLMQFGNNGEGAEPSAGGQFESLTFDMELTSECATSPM
Procedure, shortened: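 Human PBMCs were pretreated with compound for 3 h, then stimulated with 10 ng/mL IL-6 for 10 min. Lysate pY705-STAT3 was measured by MSD sandwich immunoassay (anti-STAT3 capture) and corrected for unstimulated background. Signal was normalized to DMSO, and IC50 came from variable-slope regression.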

[3] = PBMC, Table 115, read-out: STAT6
[4] = PBMC, Table 115, read-out: STAT3
[5] = PBMC, Table 1114, read-out: pSTAT6
[6] = PBMC, Table 1114, read-out: pSTAT3

SMILES: CC(C)C(=O)SCCOP(=O)(OCCSC(=O)C(C)C)C(F)(F)c1ccc2sc(C(=O)N[C@H]3CCC[C@H]4CC[C@@H](C(=O)N5CC(c6cccnc6)C5)N4C3=O)cc2c1 [Compound 1009, S,S′-((((difluoro(2-(((3S,6S,9aS)-5-oxo-3-(3-(pyridin-3-yl)azetidine-1-carbonyl)octahydro-1H-pyrrolo[1,2-a]azepin-6-yl)carbamoyl)benzo [b]thiophen-5-yl)methyl)phosphoryl)bis(oxy))bis(ethane-2,1-diyl)) bis(2-methyl-propanethioate)]
- pIC50 [1, 3]: 6.00 to 7.00
- pIC50 [2, 4]: > 7.00

SMILES: CC(C)(C)C(=O)SCCOP(=O)(OCCSC(=O)C(C)(C)C)C(F)(F)c1ccc2sc(C(=O)N[C@H]3CCCC[C@H]4CC[C@@H](C(=O)N5CC(c6cccnc6)C5)N4C3=O)cc2c1 [Compound 181, S,S′-((((difluoro(2-(((3S,6S,10aS)-5-oxo-3-(3-(pyridin-3-yl)azetidine-1-carbonyl)decahydro-pyrrolo[1,2-a]azocin-6-yl)carbamoyl)benzo[b]thiophen-5-yl)methyl)phosphoryl)bis(oxy))bis(ethane-2,1-diyl)) bis(2,2-dimethylpropanethioate)]
- pIC50 [1, 5]: < 5.52
- pIC50 [2, 6]: > 7.00

SMILES: CC(C)CC(=O)SCCOP(=O)(OCCSC(=O)CC(C)C)C(F)(F)c1ccc2sc(C(=O)N[C@H]3CCCCC4CC[C@@H](C(=O)N5C[C@H](c6ccccc6)[C@@H](C#N)C5)N4C3=O)cc2c1 (single isomer, unassigned) [Compound 163, S,S′-(((((2-(((3S,6S,10aS)-3-((3R,4S or 3S,4R)-3-cyano-4-phenylpyrrolidine-1-carbonyl)-5-oxodecahydro-pyrrolo[1,2-a]azocin-6-yl)carbamoyl)benzo[b]thiophen-5-yl)difluoromethyl)phosphoryl)bis(oxy))bis(ethane-2,1-diyl)) bis(3-methylbutane thioate)]
- pIC50 [1, 5]: > 7.00
- pIC50 [2, 6]: < 5.52

SMILES: CC(C)(C)C(=O)SCCOP(=O)(OCCSC(=O)C(C)(C)C)C(F)(F)c1ccc2sc(C(=O)N[C@H]3CCC4(CC4)C[C@H]4CC[C@@H](C(=O)N5CC(c6cccnc6)C5)N4C3=O)cc2c1 [Compound 132, S,S′-((((difluoro(2-(((3′S,6′S,10a′R)-5′-oxo-3′-(3-(pyridin-3-yl)azetidine-1-carbonyl)octahydro-1′H-spiro [cyclopropane-1,9′-pyrrolo[1,2-a]azocin]-6′-yl)carbamoyl)benzo[b]thiophen-5-yl)methyl)phosphoryl)bis (oxy))bis(ethane-2,1-diyl))bis(2,2-dimethylpropane-thioate)]
- pIC50 [1, 5]: < 5.52
- pIC50 [2, 6]: > 7.00

SMILES: CC(C)(C)C(=O)SCCOP(=O)(OCCSC(=O)C(C)(C)C)C(F)(F)c1ccc2sc(C(=O)N[C@H]3CCC[C@H]4CC[C@@H](C(=O)N5CC(c6ncccn6)C5)N4C3=O)cc2c1 [Compound 962, S,S′-((((difluoro(2-(((3S,6S,9aS)-5-oxo-3-(3-(pyrimidin-2-yl)azetidine-1-carbonyl)octahydro-1H-pyrrolo[1,2-a]azepin-6-yl)carbamoyl)benzo [b]thiophen-5-yl)methyl)phosphoryl)bis(oxy))bis(ethane-2,1-diyl))bis(2,2-dimethyl-propanethioate)]
- pIC50 [1, 3]: < 5.52
- pIC50 [2, 4]: > 7.00

SMILES: CCCOC(=O)[C@H](C)NP(=O)(Oc1ccccc1)[C@@H](F)c1ccc2sc(C(=O)N[C@H]3CCC[C@H]4CC[C@@H](C(=O)N5C[C@@H](c6ccccc6)[C@H](C#N)C56CC6)N4C3=O)cc2c1 (stereo partly drawn) [Compound 382, propyl (((R)-(2-(((3S,6S,9aS)-3-((6R,7S)-7-cyano-6-phenyl-4-azaspiro[2.4]heptane-4-carbonyl)-5-oxooctahydro-1H-pyrrolo[1,2-a]azepin-6-yl)carbamoyl)benzo [b]thiophen-5-yl)fluoromethyl) (phenoxy)phosphoryl)-L-alaninate]
- pIC50 ([1]; STAT6, PBMC, Table 115): > 7.00
- pIC50 ([2]; STAT3, PBMC, Table 115): < 5.52
